Source: paper PMC10098121, “Amphipathic barbiturates as marine product mimics with cytolytic and immunogenic effects on head and neck squamous cell carcinoma cell lines” (Frontiers in Pharmacology, 2023)

How the values were obtained:
Type in all cases: cell-based, human
HSC-3 cells = assay: MTS viability assay with bafilomycin A1 and z-VAD-FMK; settings: HSC-3, 24 h; cisplatin 50 µM, MPM-2:0/MPM-6:0 5 µM, MPM-3:2/MPM-4:2 10 µM
Experimental: HSC-3 and UT-SCC-24A cells were seeded, 10,000 cells/well, in flat bottom 96-well plates and left to adhere overnight. The supernatants were then removed and replaced by 50 µl of complete DMEM/F-12 ± 100 nM BafA1 (#196000, Sigma-Aldrich, St. Louis, MO, United States) or 50 µM z-VAD-FMK (#219007, Sigma-Aldrich). The plate was then incubated for 1 hour before another 50 µl of complete DMEM/F-12 ± 100 nM BafA1 or 50 µM z-VAD-FMK as well as the MPMs or cisplatin was added. The final concentration of cisplatin was 50 µM and for the MPMs it was 5 or 10 µM for MPM-2:0 and MPM-6:0, and 10 or 20 µM for MPM-3:2 and MPM-4:2, for HSC-3 and UT-SCC-24A cells, respectively. 100 μl of media ± 1% Triton X-100 served as […]. The cells were incubated for 24 h before 20 µl of MTS reagent (CellTiter 96® Aqueous One Solution, Promega, Madison, WI, United States) was added to each well. The plate was then incubated for one more hour before absorbance was measured at 490 nm on a VersaMaxTM Microplate reader (Molecular Devices, San Jose, CA, United States). Viability was calculated using the following formula: %=Abs treated sample−Abs positive control/Abs negative control−Abs positive control x 100
At least three independent experiments were performed, with triplicate wells in each experiment.

UT-SCC-24A cells = assay: Flow cytometric detection of apoptosis (Annexin V/PI); settings: 24 h
Experimental: HSC-3 and UT-SCC-24A cells were seeded, 300,000 cells/well, in 6-well plates and left to adhere overnight. The media was then removed and replaced by 2 ml complete DMEM/F-12 containing 5, 7.5, 10 or 20 µM of MPM-2:0, MPM-6:0, MPM-3:2 or MPM-4:2, or 50 µM cisplatin. Some cells were left untreated. The cells were then incubated for 24 h. Next, the cell supernatants were collected before the cells were trypsinized and spun down with the supernatants. For the staining, an apoptosis detection kit was used (#88-8005-74, Thermo Fisher Scientific). The cells were washed once in PBS and once in 1x binding buffer before being incubated with FITC labeled Annexin V diluted 1:25 in 1 × binding buffer for 15 min. Next the cells were washed in 1 × binding buffer before being incubated with PI diluted 1:100 in 1 × binding buffer for at least 5 min before analysis was performed on the LSR Fortessa (BD Biosciences, CA, United States). Analyses were performed in FlowJo™ v.10 (https://www.flowjo.com/).

UT-SCC-24B = assay: High throughput drug screening (CellTiter-Glo, DSS); settings: for drug sensitivity score (DSS): 72 h, 10-100,000 nM, myogel, non-irradiated; for delta DSS (ΔDSS): DSS irradiated (2 Gy) minus DSS non-irradiated, >5 synergy, <–5 antagonism
Experimental: (§1) The MPMs were screened against a panel of […] different cell lines (HSC-3, UT-SCC-8, UT-SCC-24A, UT-SCC-24B, UT-SCC-42A, UT-SCC-42B and NOF) at the High Throughput Biomedicine Unit (HTB) at the Institute for Molecular Medicine Finland (FIMM). On day 1, black-walled 384-well plates were coated with 5 µl diluted myogel (0.5 mg/ml) per well using an automated reagent dispenser (MultiFlo FX, BioTek, Winooski, VT, United States). On day 2, 500 cells per well were seeded in 20 µl of complete media using the MultiFlo FX (BioTek), and the cells were left to adhere overnight. On day 3, the MPMs, cisplatin, DMSO and Benzethonium chloride were added to the cells using an automatic liquid handler (Echo 550, Labcyte Inc., San Jose, CA, United States). Cisplatin and the MPMs were added to yield five different concentrations in a ten-fold dilution series ranging from 10 to 100,000 nM. Each concentration was tested in triplicate wells. DMSO (0.1%) and benzethonium chloride (100 µM) served as negative and positive control, respectively. Three hours later, some of the plates were irradiated with 2 Gy in a gamma irradiator (OB29/4, STS, Braunschweig, Germany). All plates were taken to the irradiation room to ensure similar handling of the plates. 72 h later, the plates were cooled to room temperature before 25 µl of CellTiter-Glo 2.0 reagent (Promega, Madison, WI, USA) was added to each well using the MultiFlo FX (BioTek). Next, the plates were centrifuged for 5 min at 1,000 rpm before the luminescence signal was measured with the PHERAstar FS HT reader (BMG LABTECH GmbH, Ortenberg, Germany). The raw data was analyzed with the Breeze software (https://breeze.fmm.fi), which normalized the luminescence signal from treated cells against the signal from negative and positive control cells to calculate the percentage of inhibition and generate dose-response curves, which were then used to calculate drug sensitivity scores (DSS). The DSS is a parameter which combines the IC50, the slope of the dose-response curve, and the minimum and maximum responses into a single metric, as previously described ([Yadav et al., 2014]). Quality control was performed by calculation of the Z′-factor, which was >0.7 for all cell lines, indicating high quality of the assay ([Zhang et al., 1999]).

HSC-3 = assay: as above; settings: for drug sensitivity score (DSS): HSC-3, 72 h, 10-100,000 nM, myogel, non-irradiated; for delta DSS (ΔDSS): HSC-3, DSS irradiated (2 Gy) minus DSS non-irradiated, >5 synergy, <–5 antagonism
Experimental: as §1

UT-SCC-106A = assay: as above; settings: for drug sensitivity score (DSS): 72 h, 10-100,000 nM, myogel, non-irradiated; for delta DSS (ΔDSS): DSS irradiated (2 Gy) minus DSS non-irradiated, >5 synergy, <–5 antagonism
Experimental: as §1

UT-SCC-8 = assay: as above; settings: for drug sensitivity score (DSS): UT-SCC-8, 72 h, 10-100,000 nM, myogel, non-irradiated; for delta DSS (ΔDSS): UT-SCC-8, DSS irradiated (2 Gy) minus DSS non-irradiated, >5 synergy, <–5 antagonism
Experimental: as §1

For `N.N.[Cl][Pt][Cl]` [Cisplatin, cisplatin, reference compound], the “viability in the presence of BafA1 (100 nM) or z-VAD-FMK (50 µM) (in words)” value (HSC-3 cells) was “z-VAD-FMK seemed to have some protective effects against cisplatin for both cell lines, while BafA1 had the opposite effect”, the “apoptotic (Annexin V+/PI−) population (in words)” value (UT-SCC-24A cells; cisplatin 50 µM, MPMs 5-20 µM) was “small, but clearly apoptotic (Annexin V+/PI−) population” and the “drug sensitivity score (DSS)” value (UT-SCC-24B) was 11,6. The “delta DSS (ΔDSS)” value (UT-SCC-24B) was 0,7, the “drug sensitivity score (DSS)” value (HSC-3) was 15,6 and the “delta DSS (ΔDSS)” value (HSC-3) was -0,8. The “drug sensitivity score (DSS)” value (UT-SCC-106A) was 9, the “delta DSS (ΔDSS)” value (UT-SCC-106A) was 0,3 and the “drug sensitivity score (DSS)” value (UT-SCC-8) was 16,8. For the same compound, the “delta DSS (ΔDSS)” value (UT-SCC-8) was -0,8.

In the case of `NCCN1C(=O)N(CCN)C(=O)C(CCCc2ccccc2)(CCCc2ccccc2)C1=O` [MPM-2:0], the “drug sensitivity score (DSS)” value (UT-SCC-24B) is reported as 18,3, the “delta DSS (ΔDSS)” value (UT-SCC-24B) is reported as -0,1 and the “drug sensitivity score (DSS)” value (HSC-3) is reported as 19. The “delta DSS (ΔDSS)” value (HSC-3) was -0,7, the “drug sensitivity score (DSS)” value (UT-SCC-106A) was 18 and the “delta DSS (ΔDSS)” value (UT-SCC-106A) was -0,5. For the same compound, the “drug sensitivity score (DSS)” value (UT-SCC-8) was 19,2 and the “delta DSS (ΔDSS)” value (UT-SCC-8) was 0,6.

`CN(C)CCCN1C(=O)N(CCCN(C)C)C(=O)C(CCCc2ccccc2)(CCCc2ccccc2)C1=O` [MPM-3:2] was tested, and the “Annexin V−/PI+ population (in words)” value (UT-SCC-24A cells) was “induced a large population of Annexin V−/PI + UT-SCC-24A cells”, the “drug sensitivity score (DSS)” value (UT-SCC-24B) was 18,4 and the “delta DSS (ΔDSS)” value (UT-SCC-24B) was 0,1. For the same compound, the “drug sensitivity score (DSS)” value (HSC-3) was 17,9, the “delta DSS (ΔDSS)” value (HSC-3) was -0,2 and the “drug sensitivity score (DSS)” value (UT-SCC-106A) was 18,6. The “delta DSS (ΔDSS)” value (UT-SCC-106A) was -0,2, the “drug sensitivity score (DSS)” value (UT-SCC-8) was 17,8 and the “delta DSS (ΔDSS)” value (UT-SCC-8) was 0,1.

With `CN(C)CCCCN1C(=O)N(CCCCN(C)C)C(=O)C(CCCc2ccccc2)(CCCc2ccccc2)C1=O` [MPM-4:2] the “Annexin V−/PI+ population (in words)” value (UT-SCC-24A cells) was “induced a large population of Annexin V−/PI + UT-SCC-24A cells”, the “drug sensitivity score (DSS)” value (UT-SCC-24B) was 18,9 and the “delta DSS (ΔDSS)” value (UT-SCC-24B) was -0,5. For the same compound, the “drug sensitivity score (DSS)” value (HSC-3) was 18,2, the “delta DSS (ΔDSS)” value (HSC-3) was 0,3 and the “drug sensitivity score (DSS)” value (UT-SCC-106A) was 19,5. For the same compound, the “delta DSS (ΔDSS)” value (UT-SCC-106A) was -0,2, the “drug sensitivity score (DSS)” value (UT-SCC-8) was 18,1 and the “delta DSS (ΔDSS)” value (UT-SCC-8) was 0,5.

`NCCCCCCN1C(=O)N(CCCCCCN)C(=O)C(CCCc2ccccc2)(CCCc2ccccc2)C1=O` [MPM-6:0] was tested, and the “viability in the presence of BafA1 (100 nM) or z-VAD-FMK (50 µM) (in words)” value (HSC-3 cells) was “z-VAD-FMK increase viability more than BafA1”, the “drug sensitivity score (DSS)” value (UT-SCC-24B) was 18,3 and the “delta DSS (ΔDSS)” value (UT-SCC-24B) was 0,1. The “drug sensitivity score (DSS)” value (HSC-3) was 17,8, the “delta DSS (ΔDSS)” value (HSC-3) was 0,7 and the “drug sensitivity score (DSS)” value (UT-SCC-106A) was 17,9. For the same compound, the “delta DSS (ΔDSS)” value (UT-SCC-106A) was -0,4, the “drug sensitivity score (DSS)” value (UT-SCC-8) was 19,5 and the “delta DSS (ΔDSS)” value (UT-SCC-8) was -0,8.
